The test system of series [1] is rat isolated tracheal tissue. Description: Antagonism of ACh-evoked contraction: potency and offset time.
Series [2] concerns the target T1, hM3 mAChR (Homo sapiens, UniProt P20309). The conditions noted are these: cited from earlier work.
Series [3] concerns the target T2, hM2 mAChR (Homo sapiens, UniProt P08172).
T2 sequence (P08172 1-466): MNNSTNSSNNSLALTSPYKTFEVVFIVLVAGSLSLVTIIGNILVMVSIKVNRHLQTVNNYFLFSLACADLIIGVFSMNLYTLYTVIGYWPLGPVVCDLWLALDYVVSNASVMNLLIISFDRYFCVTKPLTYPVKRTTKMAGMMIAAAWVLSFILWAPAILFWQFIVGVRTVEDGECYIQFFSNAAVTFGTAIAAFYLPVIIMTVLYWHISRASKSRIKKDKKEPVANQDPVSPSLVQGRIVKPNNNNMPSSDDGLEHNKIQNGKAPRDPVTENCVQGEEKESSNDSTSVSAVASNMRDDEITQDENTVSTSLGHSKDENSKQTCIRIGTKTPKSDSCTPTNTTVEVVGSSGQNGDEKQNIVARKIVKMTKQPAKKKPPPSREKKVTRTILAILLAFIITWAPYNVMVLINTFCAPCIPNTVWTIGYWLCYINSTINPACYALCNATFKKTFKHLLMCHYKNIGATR
The conditions noted are these: cited from earlier work.

Series [4] concerns the target T3, cM5 mAChR (Pan troglodytes, UniProt Q5IS53).
T3 sequence (Q5IS53 1-532): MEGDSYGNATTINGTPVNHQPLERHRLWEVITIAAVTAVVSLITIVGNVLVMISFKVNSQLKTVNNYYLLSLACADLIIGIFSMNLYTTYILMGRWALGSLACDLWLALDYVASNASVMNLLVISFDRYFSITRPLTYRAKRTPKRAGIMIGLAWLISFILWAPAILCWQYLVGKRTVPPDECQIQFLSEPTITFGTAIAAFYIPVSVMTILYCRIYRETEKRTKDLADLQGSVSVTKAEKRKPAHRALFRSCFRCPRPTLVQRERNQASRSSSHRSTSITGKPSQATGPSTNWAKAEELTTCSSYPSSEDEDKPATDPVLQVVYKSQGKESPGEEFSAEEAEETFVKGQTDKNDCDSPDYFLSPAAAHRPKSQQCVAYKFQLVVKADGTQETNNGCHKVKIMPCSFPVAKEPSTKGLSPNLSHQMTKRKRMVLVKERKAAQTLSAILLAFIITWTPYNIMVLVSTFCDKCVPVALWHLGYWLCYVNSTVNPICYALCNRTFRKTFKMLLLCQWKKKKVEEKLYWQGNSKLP
Kind of series: Inhibition of agonist-stimulated calcium mobilization. In kind it is cell-based, chimpanzee. Background: Calcium flux is commonly read through the fluorescence of an indicator in the cells.

For series [5], the system named is human isolated bronchial tissue. As to conditions: human bronchus, carbachol; cited from earlier work.
Series [6] has as its target T1, hM3 mAChR. Kind of series: Reversibility of antagonism of ACh-induced calcium mobilization, CHO-K1 cells. Type of series: cell-based.
In series [7] the target is T2, hM2 mAChR. Description: Association and dissociation binding kinetics. As to conditions: 37°C.
In series [8] the target is T4, hM5 mAChR (Homo sapiens, UniProt P08912).
T4 sequence (P08912 1-532): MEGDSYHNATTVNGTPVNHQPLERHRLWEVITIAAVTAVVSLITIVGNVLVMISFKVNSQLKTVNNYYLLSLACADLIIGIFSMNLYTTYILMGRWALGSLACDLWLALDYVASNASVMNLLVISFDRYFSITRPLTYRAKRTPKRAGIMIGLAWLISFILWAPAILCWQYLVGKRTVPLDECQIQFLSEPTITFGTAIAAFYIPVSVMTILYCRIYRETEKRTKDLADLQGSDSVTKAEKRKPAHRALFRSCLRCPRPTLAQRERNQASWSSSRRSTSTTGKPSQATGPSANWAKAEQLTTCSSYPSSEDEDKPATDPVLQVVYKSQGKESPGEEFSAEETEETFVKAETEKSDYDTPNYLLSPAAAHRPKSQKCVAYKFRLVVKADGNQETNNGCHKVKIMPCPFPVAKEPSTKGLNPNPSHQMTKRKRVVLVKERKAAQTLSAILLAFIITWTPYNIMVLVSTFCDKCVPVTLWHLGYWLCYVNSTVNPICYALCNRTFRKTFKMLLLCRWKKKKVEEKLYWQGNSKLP
Description: Saturation radioligand binding.

Series [9] addresses T1, hM3 mAChR. Description: Saturation radioligand binding.
Series [10] relates to bronchoconstrictor response to ACh or methacholine (MCh). The conditions noted are these: rats, inhalation dosing; cited from earlier work.
Series [11] shares this test system. The conditions noted are these: dogs, inhalation dosing; cited from earlier work.
The target of series [12] is T1, hM3 mAChR. Description: Inhibition of agonist-stimulated calcium mobilization. In kind it is cell-based.
The target of series [13] is Guinea Pig H1 (central) (Cavia porcellus, UniProt P31389). Description: Off-target panel radioligand binding. As to conditions: read-out: % Inhibition Specific Binding (1 µM).
For series [14], the target named is T5, hM1 mAChR (Homo sapiens, UniProt P11229).
T5 sequence (P11229 1-460): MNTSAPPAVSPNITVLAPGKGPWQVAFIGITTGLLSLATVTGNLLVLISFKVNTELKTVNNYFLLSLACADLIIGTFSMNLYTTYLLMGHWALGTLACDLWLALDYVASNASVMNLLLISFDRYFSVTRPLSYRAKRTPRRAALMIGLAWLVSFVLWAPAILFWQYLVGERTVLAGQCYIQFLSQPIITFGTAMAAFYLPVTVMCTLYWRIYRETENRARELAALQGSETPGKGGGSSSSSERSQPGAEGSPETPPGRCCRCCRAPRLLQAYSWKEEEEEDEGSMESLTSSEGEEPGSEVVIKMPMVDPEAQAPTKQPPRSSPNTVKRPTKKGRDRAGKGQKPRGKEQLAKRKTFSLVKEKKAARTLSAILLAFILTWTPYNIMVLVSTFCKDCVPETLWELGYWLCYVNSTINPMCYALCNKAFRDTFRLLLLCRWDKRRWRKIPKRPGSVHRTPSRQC
Kind of series: Inhibition of agonist-stimulated calcium mobilization. Type of series: cell-based.

The target in series [15] is cloned human 5‐HT4(C) receptors (Homo sapiens, UniProt Q13639). Kind of series: 5-HT4 agonist assay. In kind it is cell-based.
In series [16] the target is T5, hM1 mAChR. Kind of series: Competition radioligand binding, [^3H]NMS.
The target of series [17] is T2, hM2 mAChR. Description: Inhibition of agonist-stimulated [^35S]GTPγS binding, CHO-K1 membranes. Type of series: biochemical. The conditions noted are these: absence of agonist.
Series [18] addresses T6, hM4 mAChR (Homo sapiens, UniProt P08173).
T6 sequence (P08173 1-479): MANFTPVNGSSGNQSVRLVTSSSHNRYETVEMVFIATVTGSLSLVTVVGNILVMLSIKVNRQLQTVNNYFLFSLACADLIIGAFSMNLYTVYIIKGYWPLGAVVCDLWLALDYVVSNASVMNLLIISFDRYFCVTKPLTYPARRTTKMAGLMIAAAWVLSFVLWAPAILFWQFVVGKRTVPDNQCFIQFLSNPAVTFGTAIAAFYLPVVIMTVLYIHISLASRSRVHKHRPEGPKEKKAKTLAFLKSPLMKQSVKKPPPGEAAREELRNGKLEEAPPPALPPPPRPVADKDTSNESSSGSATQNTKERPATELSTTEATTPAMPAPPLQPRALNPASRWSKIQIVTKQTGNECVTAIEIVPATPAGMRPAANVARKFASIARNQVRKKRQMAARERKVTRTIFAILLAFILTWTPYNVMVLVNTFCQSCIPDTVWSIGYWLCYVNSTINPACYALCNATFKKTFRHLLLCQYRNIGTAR
Kind of series: Saturation radioligand binding.

Series [19] concerns guinea pig isolated trachea. Description: Inhibition of EFS contraction: potency and offset time. As to conditions: IC90 concentration, washout.
The test system of series [20] is panel of 81 receptors, enzymes, and channels. Kind of series: Off-target panel screen. Type of series: binding. The conditions noted are these: 1 μmol L^−1.
For series [21], the target named is T1, hM3 mAChR. Kind of series: Association and dissociation binding kinetics.
The target in series [22] is histamine H1 receptor (Cavia porcellus, UniProt P31389). Description: H1 radioligand binding, concentration-response. As to conditions: selectivity hM3 over H1.
Series [23] concerns the target T7, hM4‐Gα16 mAChR (Homo sapiens, UniProt P08173).
T7 sequence (P08173 1-479): T6 sequence (P08173 1-479)
Kind of series: Inhibition of agonist-stimulated calcium mobilization. Type of series: cell-based.

Series [24] concerns the target T1, hM3 mAChR. Description: Competition radioligand binding, [^3H]NMS. As to conditions: hM3 pKI, [^3H]NMS competition, CHO-K1 membranes, 37°C; mean ± SD.
In series [25] the target is T6, hM4 mAChR. Kind of series: Competition radioligand binding, [^3H]NMS.
Series [26] concerns the target T4, hM5 mAChR. Kind of series: Competition radioligand binding, [^3H]NMS.
The test system of series [27] is human isolated bronchial tissue. Description: Antagonism of carbachol-evoked contraction: potency and offset time. The conditions noted are these: superfusion washout, 10‐100 nmol·L^−1, 1 μmol L^−1 CCh, 10 hours perfusion.
Series [28] deals with T5, hM1 mAChR. Description: Saturation radioligand binding.
Series [29] concerns COPD patients. The conditions noted are these: nebulized, once‐daily dosing; cited from earlier work.
Where [30] appears, read: tested alone in cells expressing mAChRs.

The structures appear in SMILES notation. Where “and” joins values, the source holds several entries; their conditions need not be identical. Identical values can stand only once. Like-named read-outs stand apart in the source and are kept apart here. A value given as a limit tells only on which side of the number the result lay.

A word on the pA2: it is a measure of antagonist potency on a negative log scale. A high value points to higher antagonist potency. By Ki is commonly meant the dissociation constant of the complex between target and ligand, obtained from inhibition or displacement. One may read the Kb as the equilibrium dissociation constant of an antagonist, usually derived from a functional assay. What is called Kd is a measure of binding affinity in units of concentration. Low readings indicate higher affinity, high ones lower affinity. What is called inhibition is how much of the control response was suppressed. In general, EC50 refers to the concentration that produces a half-maximal response. Higher therefore signals weaker potency.

T1 sequence (P20309 whole entry): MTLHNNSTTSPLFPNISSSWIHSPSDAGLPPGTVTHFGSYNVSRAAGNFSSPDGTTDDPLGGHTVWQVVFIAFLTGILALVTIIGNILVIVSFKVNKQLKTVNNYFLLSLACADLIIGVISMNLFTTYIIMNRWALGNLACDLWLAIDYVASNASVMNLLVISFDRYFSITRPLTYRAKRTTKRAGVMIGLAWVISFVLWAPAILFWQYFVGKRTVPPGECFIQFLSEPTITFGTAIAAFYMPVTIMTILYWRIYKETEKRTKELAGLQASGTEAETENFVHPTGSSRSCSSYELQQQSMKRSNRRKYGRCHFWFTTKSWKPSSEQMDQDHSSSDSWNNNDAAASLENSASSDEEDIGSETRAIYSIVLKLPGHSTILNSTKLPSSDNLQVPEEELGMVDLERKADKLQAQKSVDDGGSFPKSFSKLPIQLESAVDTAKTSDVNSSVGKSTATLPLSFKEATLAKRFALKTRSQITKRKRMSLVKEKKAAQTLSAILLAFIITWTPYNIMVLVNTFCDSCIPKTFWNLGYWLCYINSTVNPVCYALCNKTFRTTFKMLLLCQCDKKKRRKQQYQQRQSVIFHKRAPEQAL
Sequence of cloned human 5‐HT4(C) receptors (Q13639 1-380 isoform Q13639-4): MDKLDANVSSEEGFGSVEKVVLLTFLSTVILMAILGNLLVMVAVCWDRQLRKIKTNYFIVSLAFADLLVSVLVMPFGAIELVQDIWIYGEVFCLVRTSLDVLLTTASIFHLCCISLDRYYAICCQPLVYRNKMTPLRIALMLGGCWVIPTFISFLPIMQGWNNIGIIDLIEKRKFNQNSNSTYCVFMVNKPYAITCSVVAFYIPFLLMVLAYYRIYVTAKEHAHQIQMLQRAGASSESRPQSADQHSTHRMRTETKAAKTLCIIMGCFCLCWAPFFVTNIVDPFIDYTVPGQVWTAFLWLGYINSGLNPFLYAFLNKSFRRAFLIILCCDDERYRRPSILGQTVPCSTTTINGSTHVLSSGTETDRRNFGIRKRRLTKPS
Sequence of Guinea Pig H1 (central) (P31389 whole entry): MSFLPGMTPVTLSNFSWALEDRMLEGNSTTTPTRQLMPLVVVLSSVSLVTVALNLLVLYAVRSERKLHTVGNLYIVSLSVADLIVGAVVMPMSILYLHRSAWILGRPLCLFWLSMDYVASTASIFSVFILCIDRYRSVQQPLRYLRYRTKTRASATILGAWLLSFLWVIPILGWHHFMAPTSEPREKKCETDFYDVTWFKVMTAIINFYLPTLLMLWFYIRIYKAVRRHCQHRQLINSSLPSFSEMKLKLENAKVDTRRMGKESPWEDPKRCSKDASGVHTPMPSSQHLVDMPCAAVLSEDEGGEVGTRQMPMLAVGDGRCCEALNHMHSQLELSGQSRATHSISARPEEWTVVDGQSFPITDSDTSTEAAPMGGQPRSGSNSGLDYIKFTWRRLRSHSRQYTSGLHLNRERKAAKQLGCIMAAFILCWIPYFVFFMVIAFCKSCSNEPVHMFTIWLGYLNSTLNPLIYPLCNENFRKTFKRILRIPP
Sequence of histamine H1 receptor (P31389 whole entry): as above

Compound `CC(C)[N+]1(C)[C@@H]2CC[C@H]1C[C@@H](OC(=O)C(CO)c1ccccc1)C2` (stereo partly drawn) [Ipratropium, reference compound] gave a pA2 in series [1] (ACh contraction, surmountable antagonist) of 9.2 ± 0.1. In series [2], the “dissociation from hM3 receptors” value is “dissociate rapidly”. The “dissociation from hM2 receptors” value in series [3] is reported as “dissociate rapidly”. Also, the Ki in [4] is 0.191 nM. Further, in series [5], the nature of antagonism result is reported as “surmountable antagonism”.
On to `CN(CCN1CCC(OC(=O)Nc2ccccc2-c2ccccc2)CC1)C(=O)c1ccc(CN2CCC(C(N)=O)CC2)cc1` [Revefenacin, biphenyl‐2‐ylcarbamic acid 1‐(2‐{[4‐(4‐carbamoylpiperidin‐1‐ylmethyl)benzoyl]methylamino}ethyl)piperidin‐4‐yl ester], for which the Kb in [6] was 0.0933 nM. Moreover, the “dissociation t 1/2 M2” value in series [7] is recorded as 6.9 min. Also, the Kd is 4.2 nM in series [8]; 0.39 nM in series [9]; 0.46 nM in series [18]; 0.0933 nM in series [21]; 1 nM in [28]. Further, the “duration of bronchoprotective effect” value in [10] and in series [11] was no less than 24 h throughout. In addition, the inhibitory constant (Ki) in series [12] is 0.0955 nM; in series [14], 0.126 nM; in series [16], 0.417 nM; in [4], 0.363 nM; in series [23], 0.0112 nM; in series [24] it was 0.2 nM and 0.178 nM. Further, the Ki in series [25] (hM4 KI, [^3H]NMS competition, from IC50 by Cheng and Prusoff) was 0.56 nM; in series [25] (hM4 pKI, [^3H]NMS competition, CHO-K1 membranes, 37°C, mean ± SD) it was 0.55 nM; in series [26] (hM5 KI, [^3H]NMS competition, from IC50 by Cheng and Prusoff) it was 6.7 nM; in series [26] (hM5 pKI, [^3H]NMS competition, CHO-K1 membranes, 37°C, mean ± SD), 6.31 nM. Besides, the “Ca^2+ response when tested alone (agonist activity), hM3” value in series [12] (setting [30]) is reported as “no Ca^2+ response”. Also, in [13], the inhibition at 1 µM was 87%. The “Ca^2+ response when tested alone (agonist activity), hM1” value in series [14] (setting [30]) is “no Ca^2+ response”. The “offset t 1/2” value in series [1] (IC90 concentration, washout, time for response to recover by 50%) was 13.3 h; in series [19] it was greater than 16 h; in [27] it was greater than 10 h. Besides, the “potency lower than that of tiotropium” value in series [1] (from pKB) is given as 4 fold. Besides, the “potency greater than that of ipratropium” value in series [1] (pKB vs pA2) came out at 20 fold. The compound also gave an EC50 in series [15] of 257 nM. In series [15] (selectivity hM3 over 5-HT4), the “potency at 5‐HT4 receptor lower than Ki at the hM3 receptor” value is reported as greater than 1400 fold. Also, the “stimulation of [^35S]GTPγS binding at hM2 (agonist activity)” value in [17] is recorded as “did not stimulate”. The “activity at a majority of the targets” value in series [20] is less than 75%. Also, the “hM3 dissociation t 1/2 shorter than that of tiotropium” value in series [21] is reported as 2.8 fold. For the same compound, the “dissociation t 1/2 M3” value in series [21] (37°C) is 1.37 h. The “potency at histamine H1 receptor lower than Ki at the hM3 receptor” value in series [22] is recorded as greater than 2700 fold. In series [4] (setting [30]), the “Ca^2+ response when tested alone (agonist activity), cM5” value was “no Ca^2+ response”. For the same compound, the “Ca^2+ response when tested alone (agonist activity), hM4‐Gα16” value in series [23] (setting [30]) is “no Ca^2+ response”. In [29], the duration of bronchodilation was 24 h.
As for `C[N+]1(C)[C@@H]2C[C@@H](OC(=O)C(O)(c3cccs3)c3cccs3)C[C@H]1[C@@H]1O[C@@H]12` [Tiotropium, reference compound], in [19], the “offset t 1/2” value was greater than 20 h. For the same compound, the Ki in series [4] was 0.105 nM; in series [23], 0.0617 nM; in series [25] it was 0.0204 nM; in series [26], 0.0813 nM. Besides, the nature of antagonism entry in series [5] is on record as “potent insurmountable antagonist”.

(Values after publication PMC5927803 (Pharmacology Research & Perspectives, 2018).)
